# Patent publication US9976170B2, “Method for evaluating bacterial cell wall integrity” (UNIVERSIDAD AUTONOMA DE MADRID, priority 2011, dated 2018)
# Key:
# Type in all cases: cell-based
# [1] = system: Enterococcus faecalis, ampicillin-sensitive and benzylpenicillin-resistant strain; experiment: MIC by microdilution and/or E-test
# Excerpt: (§1) The strains and the antibiotics used were: • Gram+ • Enterococcus faecalis.
# (§2) The doses of antibiotic applied were 0, the MIC determined in the Microbiology Laboratory by means of the microdilution and/or E-test technique, and those of the cutoff points of sensitivity and resistance indicated by the Clinical and Laboratory Standards Institute (CLSI) for each strain. A dose 10 times higher than the MIC was also used.
# [2] = system: Enterococcus faecium, ampicillin- and benzylpenicillin-resistant strain; experiment: MIC by microdilution and/or E-test
# Excerpt: as §1, §2
# [3] = system: Enterococcus faecalis, ampicillin-sensitive and benzylpenicillin-resistant strain; experiment: technique for evaluating cell wall integrity (lysis solution, nucleoid release, fluorescence microscopy); details: 60 minutes
# Protocol: (§3) Different bacterial strains grown on a dish with Mueller-Hinton medium for 24 hours were subsequently exposed to a β-lactam antibiotic for 60 minutes in Mueller-Hinton liquid medium at 37° C., under stirring, and were finally processed by means of the technique for evaluating cell wall integrity according to the present invention.
# as §2
# [4] = system: Enterococcus faecium, ampicillin- and benzylpenicillin-resistant strain; experiment: as above; details: 320 μg/mL, 60 minutes
# Protocol: as §3, §2
# [5] = system: Escherichia coli, ampicillin- and ceftazidime-resistant strain; experiment: as above; details: 60 minutes
# Protocol: as §3, §2
# [6] = system: Escherichia coli, ceftazidime-sensitive strain with intermediate sensitivity to ampicillin; experiment: as above; details: 60 minutes
# Protocol: as §3, §2
# [7] = system: ampicillin-sensitive E. coli strain; experiment: incubation with increasing doses of antibiotic, lysed/non-lysed cells normalized by OD 600 (persisters); details: 60 minutes; for Lysed Cells Relative / Non-lysed Cells Relative: normalized by OD 600
# [8] = system: ampicillin-sensitive E. coli strain; experiment: microgranular-fibrillar background in microgels stained with SYBR Gold (Example 8); details: 32 μg/mL, 60 minutes
# Protocol: The experiment was conducted with a strain of ampicillin-sensitive E. coli and a strain of imipenem-sensitive A. baumanii. The first strain was incubated with 32 μg/mL ampicillin and the second strain with 0.76 μg/mL imipenem for 60 minutes in Mueller-Hinton liquid medium at 37° C. under stirring. After incubation, each culture with the cells was included in microgels on the slide. A microgel containing the antibiotic-free control culture, and 2 microgels containing the culture treated with antibiotic were placed on each slide. The size of each microgel corresponds to a 18×18 mm slide cover. The microgels on some slides were washed in a proteinase K buffer (1% SDS, 2 mM EDTA) and the microgels on other slides were washed in a DNAase I buffer (20 mM Tris-HCl, pH 8.3, 2 mM MgCl2). In the former, one of the microgels containing the culture treated with ampicillin was incubated only with a proteinase K buffer and the other microgel containing the culture treated with ampicillin was incubated with 5 μl of 2 mg/mL proteinase K, in the buffer thereof. In the slides washed with a DNAase I buffer, one of the microgels containing the culture treated with ampicillin was incubated only with a DNAase I buffer and the other microgel containing the culture treated with ampicillin was incubated with 5 μl of 2.5 U DNAase I, in the buffer thereof. […]
smiles,measurement,setting,value
CC1(C)S[C@@H]2[C@H](NC(=O)[C@H](N)c3ccccc3)C(=O)N2[C@H]1C(=O)O [ampicillin],MIC,[1],4 µg/mL
same,MIC,[2],> 32 µg/mL
same,background of extracellular DNA fragments,[3]; 4 μg/mL (MIC),subtle background
same,cells lysed with fragmented DNA,[3]; 4 μg/mL (MIC),12%
same,heavily lysed cells,[3]; 4 μg/mL (MIC),35%
same,moderately lysed cells,[3]; 4 μg/mL (MIC),25%
same,non-lysed cells,[3]; 4 μg/mL (MIC),28%
same,background of extracellular DNA fragments,[3]; 40 μg/mL,very faint
same,cells lysed with fragmented DNA nucleoid,[3]; 40 μg/mL,2%
same,cells with a large lysis halo,[3]; 40 μg/mL,20%
same,cells with a small halo,[3]; 40 μg/mL,15%
same,non-lysed cells,[3]; 40 μg/mL,63%
same,background of extracellular DNA fragments,[4],subtle background
same,cells with a small halo,[4],2%
same,heavily lysed cells,[4],7.5%
same,lysed cells with nucleoid with fragmented DNA,[4],1%
same,non-lysed cells,[4],89%
same,background of extracellular DNA fragments,[5]; 256 μg/mL,without background
same,cells lysed with nucleoid with fragmented DNA,[5]; 256 μg/mL,1%
same,lysed cells,[5]; 256 μg/mL,0.5%
same,background of extracellular DNA fragments,"[5]; 2,560 μg/mL",subtle background
same,cells lysed with nucleoid with fragmented DNA,"[5]; 2,560 μg/mL",1.5%
same,empty capsules,"[5]; 2,560 μg/mL",4%
same,heavily lysed cells,"[5]; 2,560 μg/mL",13%
same,moderately lysed cells,"[5]; 2,560 μg/mL",5%
same,background of extracellular DNA fragments,[6]; 8 μg/mL,extensive background
same,cells lysed with nucleoid with fragmented DNA,[6]; 8 μg/mL,9%
same,heavily lysed cells,[6]; 8 μg/mL,55%
same,empty capsules,[6]; 16 μg/mL (MIC),22.6
same,lysed cells with a large halo,[6]; 16 μg/mL (MIC),60.4%
same,lysed cells with nucleoid with fragmented DNA,[6]; 16 μg/mL (MIC),5.7%
same,non-lysed cells,[6]; 16 μg/mL (MIC),11.3%
same,cells with a large halo,[6]; 20 μg/mL,47.3%
same,empty capsules,[6]; 20 μg/mL,31.2%
same,lysed cells with nucleoid with fragmented DNA,[6]; 20 μg/mL,8.6%
same,non-lysed cells,[6]; 20 μg/mL,12.9%
same,empty capsules,[6]; 32 and 160 μg/mL,54%
same,Lysed Cells %,[7]; dose 2 μg/mL,90.3%
same,Non-lysed Cells %,[7]; dose 2 μg/mL,9.7%
same,OD600 (ODinitial = 0.1),[7]; dose 2 μg/mL,0.323
same,RELATIVE OD600 %,[7]; dose 2 μg/mL,77.6%
same,Lysed Cells Relative,[7]; dose 2 μg/mL,70.1
same,Non-lysed Cells Relative,[7]; dose 2 μg/mL,7.5
same,Lysed Cells %,[7]; dose 8 μg/mL,70.6%
same,Non-lysed Cells %,[7]; dose 8 μg/mL,29.3%
same,OD600 (ODinitial = 0.1),[7]; dose 8 μg/mL,0.120
same,RELATIVE OD600 %,[7]; dose 8 μg/mL,28.8%
same,Lysed Cells Relative,[7]; dose 8 μg/mL,20.4
same,Non-lysed Cells Relative,[7]; dose 8 μg/mL,8.5
same,Lysed Cells %,[7]; dose 16 μg/mL,37.5%
same,Non-lysed Cells %,[7]; dose 16 μg/mL,62.5%
same,OD600 (ODinitial = 0.1),[7]; dose 16 μg/mL,0.050
same,RELATIVE OD600 %,[7]; dose 16 μg/mL,12.0%
same,Lysed Cells Relative,[7]; dose 16 μg/mL,4.5
same,Non-lysed Cells Relative,[7]; dose 16 μg/mL,7.5
same,Lysed Cells %,[7]; dose 32 μg/mL,22.5%
same,Non-lysed Cells %,[7]; dose 32 μg/mL,77.5%
same,OD600 (ODinitial = 0.1),[7]; dose 32 μg/mL,0.027
same,RELATIVE OD600 %,[7]; dose 32 μg/mL,6.5%
same,Lysed Cells Relative,[7]; dose 32 μg/mL,1.5
same,Non-lysed Cells Relative,[7]; dose 32 μg/mL,5.0
same,Lysed Cells %,[7]; dose 160 μg/mL,15.0%
same,Non-lysed Cells %,[7]; dose 160 μg/mL,85.0%
same,OD600 (ODinitial = 0.1),[7]; dose 160 μg/mL,0.024
same,RELATIVE OD600 %,[7]; dose 160 μg/mL,5.8%
same,Lysed Cells Relative,[7]; dose 160 μg/mL,0.9
same,Non-lysed Cells Relative,[7]; dose 160 μg/mL,4.9
same,relative proportion of non-lysed cells,"[7]; over all increasing doses, according to relative OD 600",5-8.5
same,microgranular-fibrillar background in the preparation,[8],showed the background
